{"source": "patent US20240366739A1", "about": "“MEDICAMENT FOR TREATMENT AND/OR PREVENTION OF CANCER” (TORAY INDUSTRIES, INC., priority 2021, published 2024)", "system": "mouse lymphoma cell line EG7 (OVA-expressing cancer cells) subcutaneously transplanted", "experiment": "in vivo antitumor effect in cancer-bearing mice (tumor volume measured with calipers)", "conditions": "Example 6; C57BL/6NCR mice with EG7 tumors; particle 0.5 mg s.c. once a week x2 from day 7; Poly(I:C) 50 μg into tumors twice a week x4; mixture given s.c."}
{"substance": "Poly(I:C)", "values": [{"measurement": "tumor growth / regression (tumor volume)", "result": "not changed compared to negative controls"}]}
